In ChEMBL document CHEMBL3853264 (Medchemcomm, 2016):
pIC50, pKi: −log10 of the molar value. ≈ marks a conversion by molar mass, not a printed value.

How the values were obtained:
[1] = Renal clearance in dog; type: ADME, Canis lupus familiaris; settings: in vivo
[2] = Drug metabolism in human hepatocytes assessed as loss of chlorobenzonitrile moiety in presence of glutathione; type: ADME, cell-based, Hepatocyte
[3] = Plasma clearance in rat at 0.76 mg/kg, iv and 2.3 mg/kg, po; type: ADME, organism-based
[4] = biological target: Solute carrier organic anion transporter family member 1B3 (Homo sapiens, UniProt Q9NPD5); experiment: Drug uptake assessed as human OATP1B3-mediated drug accumulation by cell-based assay relative to wild type protein; type: ADME
Sequence of Solute carrier organic anion transporter family member 1B3 (Q9NPD5 whole entry): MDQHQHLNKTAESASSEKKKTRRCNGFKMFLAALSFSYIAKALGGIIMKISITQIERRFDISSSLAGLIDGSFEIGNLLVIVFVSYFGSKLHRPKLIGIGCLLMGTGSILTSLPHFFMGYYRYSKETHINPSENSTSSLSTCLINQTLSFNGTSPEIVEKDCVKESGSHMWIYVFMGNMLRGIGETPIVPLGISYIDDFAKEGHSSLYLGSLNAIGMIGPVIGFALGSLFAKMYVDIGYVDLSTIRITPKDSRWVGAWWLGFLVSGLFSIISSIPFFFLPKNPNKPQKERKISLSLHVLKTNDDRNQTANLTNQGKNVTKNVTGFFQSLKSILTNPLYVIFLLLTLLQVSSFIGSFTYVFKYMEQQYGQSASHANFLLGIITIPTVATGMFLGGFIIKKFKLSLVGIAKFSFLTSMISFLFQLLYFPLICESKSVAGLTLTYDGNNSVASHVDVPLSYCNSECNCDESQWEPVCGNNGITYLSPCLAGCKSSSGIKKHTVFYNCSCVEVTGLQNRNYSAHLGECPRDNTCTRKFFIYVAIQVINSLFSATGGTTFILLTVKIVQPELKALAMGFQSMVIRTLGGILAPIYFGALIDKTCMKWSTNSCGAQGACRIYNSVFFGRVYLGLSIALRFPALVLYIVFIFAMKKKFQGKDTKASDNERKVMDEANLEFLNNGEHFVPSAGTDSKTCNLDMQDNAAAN

[5] = Octanol-water partition co-efficient, log D of the compound by shake flask method; type: physicochemical
Canis familiaris [6] = experiment: Hepatotoxicity in male dog assessed as pathological changes at >= 30 mg/kg/day, po measured over 14 days; type: toxicity, organism-based, Canis lupus familiaris; settings: in vivo, 336 h
[7] = biological target: Solute carrier family 22 member 6 (Homo sapiens, UniProt Q4U2R8); experiment: Inhibition of OAT1 (unknown origin)
Sequence of Solute carrier family 22 member 6 (Q4U2R8 whole entry): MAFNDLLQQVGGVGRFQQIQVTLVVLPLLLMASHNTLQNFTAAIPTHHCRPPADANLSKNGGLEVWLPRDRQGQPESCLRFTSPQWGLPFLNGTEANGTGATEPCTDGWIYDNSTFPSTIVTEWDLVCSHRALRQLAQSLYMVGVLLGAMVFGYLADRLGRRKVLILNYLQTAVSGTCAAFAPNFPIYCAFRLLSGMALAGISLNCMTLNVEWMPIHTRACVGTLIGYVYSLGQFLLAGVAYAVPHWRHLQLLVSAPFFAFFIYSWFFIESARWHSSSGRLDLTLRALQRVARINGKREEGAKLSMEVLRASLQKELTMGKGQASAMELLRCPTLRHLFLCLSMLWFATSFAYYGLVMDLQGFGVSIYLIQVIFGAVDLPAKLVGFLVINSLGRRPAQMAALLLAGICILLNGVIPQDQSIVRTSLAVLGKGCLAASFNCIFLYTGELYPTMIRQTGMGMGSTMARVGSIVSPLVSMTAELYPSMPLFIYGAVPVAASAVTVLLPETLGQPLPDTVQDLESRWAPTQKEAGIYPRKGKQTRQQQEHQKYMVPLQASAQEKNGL

[8] = Drug metabolism in dog assessed as oxidation of chlorophenyl ring; type: ADME, Canis lupus familiaris
Rattus norvegicus [9] = experiment: Cardiovascular toxicity in rat assessed as small biphasic change in blood pressure at 30 to 100 mg/kg, po measured over 14 days; type: organism-based; settings: in vivo, 336 h
Cytochrome P450 3A4 = Cytochrome P450 3A4 (Homo sapiens, UniProt P08684); experiment: Inhibition of CYP3A4 (unknown origin); type: ADME
Sequence of Cytochrome P450 3A4 (P08684 whole entry): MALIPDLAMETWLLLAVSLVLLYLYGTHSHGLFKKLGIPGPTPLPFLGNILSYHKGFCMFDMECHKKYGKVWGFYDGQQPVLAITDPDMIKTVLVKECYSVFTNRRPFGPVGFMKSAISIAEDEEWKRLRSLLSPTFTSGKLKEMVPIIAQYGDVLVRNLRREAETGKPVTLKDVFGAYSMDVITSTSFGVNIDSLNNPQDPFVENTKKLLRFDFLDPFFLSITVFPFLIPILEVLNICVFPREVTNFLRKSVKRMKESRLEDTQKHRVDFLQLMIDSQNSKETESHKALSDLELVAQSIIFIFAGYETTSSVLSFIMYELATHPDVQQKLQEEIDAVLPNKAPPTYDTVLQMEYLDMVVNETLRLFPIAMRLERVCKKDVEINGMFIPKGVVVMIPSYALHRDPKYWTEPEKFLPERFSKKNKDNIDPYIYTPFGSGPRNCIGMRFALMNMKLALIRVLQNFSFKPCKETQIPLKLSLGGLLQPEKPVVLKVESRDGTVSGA

[10] = Unbound clearance in rat at 0.5 mg/kg, iv and 1 mg/kg, po; type: ADME, organism-based; settings: in vivo
[11] = Drug metabolism in rat assessed as loss of chlorobenzonitrile moiety in presence of glutathione; type: ADME
[12] = biological target: Sodium channel protein type 5 subunit alpha (Homo sapiens, UniProt Q14524); experiment: Inhibition of human NaV1.5 expressed in HEK293 cells by patch clamp method; type: cell-based
[13] = Drug metabolism in human liver microsomes assessed as oxidation of chlorophenyl ring; type: ADME
[14] = Drug metabolism in human hepatocytes assessed as oxidation of chlorophenyl ring; type: ADME, cell-based, Hepatocyte
Rattus norvegicus [15] = experiment: Toxicity in rat assessed as hepatocellular hypertrophy with focal necrosis at 300 mg/kg/day, po measured over 14 days by microscopic analysis; type: organism-based; settings: in vivo, 336 h
Rattus norvegicus [16] = experiment: Toxicity in rat assessed as hypertrophy/hyperplasia of the urothelium at 300 mg/kg/day, po measured over 14 days by microscopic analysis; type: organism-based; settings: in vivo, 336 h
[17] = Fraction unbound in rat plasma; type: ADME, cell-free
[18] = biological target: Organic anion transporter 3 (Homo sapiens, UniProt Q8TCC7); experiment: Inhibition of OAT3 (unknown origin)
Sequence of Organic anion transporter 3 (Q8TCC7 whole entry): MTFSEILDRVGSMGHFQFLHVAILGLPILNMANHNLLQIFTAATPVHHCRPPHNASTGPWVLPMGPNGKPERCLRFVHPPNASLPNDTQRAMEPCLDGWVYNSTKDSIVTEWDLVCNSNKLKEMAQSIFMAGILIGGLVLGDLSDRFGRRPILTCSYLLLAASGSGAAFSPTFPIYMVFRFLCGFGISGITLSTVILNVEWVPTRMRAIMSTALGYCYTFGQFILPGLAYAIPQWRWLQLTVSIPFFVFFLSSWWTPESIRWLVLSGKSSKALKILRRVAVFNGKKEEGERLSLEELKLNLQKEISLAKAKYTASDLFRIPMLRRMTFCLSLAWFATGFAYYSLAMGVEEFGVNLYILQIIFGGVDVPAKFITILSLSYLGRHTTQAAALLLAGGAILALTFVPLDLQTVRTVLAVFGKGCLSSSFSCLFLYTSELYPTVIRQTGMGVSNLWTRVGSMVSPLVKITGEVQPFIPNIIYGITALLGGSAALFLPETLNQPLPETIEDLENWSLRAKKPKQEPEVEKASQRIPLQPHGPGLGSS

[19] = Oral bioavailability in rat at 2.3 mg/kg; type: ADME, organism-based; settings: in vivo
[20] = biological target: T1, Solute carrier family 22 member 12 (Homo sapiens, UniProt Q96S37); experiment: Inhibition of human C-terminal eGFP-tagged URAT1 long isoform expressed in CHO cells assessed as decrease in [14C]-uric acid uptake preincubated for 15 mins followed by [14C]-uric acid addition and incubated in dark for 3 hrs by scintillation counting method; type: cell-based
T1 sequence (Q96S37 whole entry): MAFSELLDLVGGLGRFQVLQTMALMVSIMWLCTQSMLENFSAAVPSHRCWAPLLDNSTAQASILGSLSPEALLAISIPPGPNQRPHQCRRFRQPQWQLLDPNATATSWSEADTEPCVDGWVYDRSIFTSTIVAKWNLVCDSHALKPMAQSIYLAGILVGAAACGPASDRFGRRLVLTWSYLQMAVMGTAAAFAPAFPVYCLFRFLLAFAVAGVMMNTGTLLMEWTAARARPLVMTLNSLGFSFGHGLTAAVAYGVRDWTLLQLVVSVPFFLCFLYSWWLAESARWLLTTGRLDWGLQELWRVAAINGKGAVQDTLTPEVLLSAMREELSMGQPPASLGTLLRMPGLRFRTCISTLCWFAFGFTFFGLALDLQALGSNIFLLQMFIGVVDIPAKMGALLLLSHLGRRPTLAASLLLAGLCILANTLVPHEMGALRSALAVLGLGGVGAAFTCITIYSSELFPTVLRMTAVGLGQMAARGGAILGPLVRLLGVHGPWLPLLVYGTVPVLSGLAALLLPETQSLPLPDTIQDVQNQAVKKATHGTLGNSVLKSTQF

Rattus norvegicus [21] = experiment: Cardiovascular toxicity in rat assessed as decrease in body temperature at 10 mg/kg, po measured over 14 days; type: organism-based; settings: in vivo, 336 h
Canis familiaris [22] = experiment: Hepatotoxicity in male dog assessed as decrease in alanine aminotransferase levels at >= 30 mg/kg/day, po measured over 14 days; type: toxicity, organism-based, Canis lupus familiaris; settings: in vivo, 336 h
[23] = biological target: Solute carrier family 22 member 11 (Homo sapiens, UniProt Q9NSA0); experiment: Inhibition of OAT4 (unknown origin)
Sequence of Solute carrier family 22 member 11 (Q9NSA0 whole entry): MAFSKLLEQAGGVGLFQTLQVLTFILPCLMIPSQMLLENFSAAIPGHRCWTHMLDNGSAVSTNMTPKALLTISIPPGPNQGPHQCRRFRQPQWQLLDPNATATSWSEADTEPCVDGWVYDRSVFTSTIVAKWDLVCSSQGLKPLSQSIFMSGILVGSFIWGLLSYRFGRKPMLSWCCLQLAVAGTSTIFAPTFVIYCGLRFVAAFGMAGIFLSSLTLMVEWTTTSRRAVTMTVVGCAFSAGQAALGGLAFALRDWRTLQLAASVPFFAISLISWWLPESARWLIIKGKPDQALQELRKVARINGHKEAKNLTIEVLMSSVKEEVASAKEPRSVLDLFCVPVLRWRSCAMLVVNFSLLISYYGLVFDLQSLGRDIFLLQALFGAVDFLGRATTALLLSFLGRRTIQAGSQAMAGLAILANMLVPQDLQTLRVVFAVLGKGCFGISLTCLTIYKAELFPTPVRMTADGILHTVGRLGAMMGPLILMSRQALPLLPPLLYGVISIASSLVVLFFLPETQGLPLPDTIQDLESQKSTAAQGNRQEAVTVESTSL

[24] = Mutagenicity in […] by Ames test in presence of […] fraction; type: toxicity
[25] = Volume of distribution at steady state in rat at 0.76 mg/kg, iv and 2.3 mg/kg, po; type: ADME, organism-based; settings: in vivo, read-out: Vdss
[26] = Drug excretion in bile of bile duct cannulated rat; type: ADME; settings: read-out: Drug excretion
[27] = Unbound Cmax in dog at 30 mg/kg, po administered as single dose measured on day 14; type: ADME, organism-based, Canis lupus familiaris; settings: in vivo
[28] = Inhibition of GABAA receptor (unknown origin); design: species or system Homo sapiens
[29] = Unbound Cmax in rat at 10 mg/kg, po administered as single dose measured on day 14; type: ADME, organism-based; settings: in vivo
[30] = Cytotoxicity against THLE cells; type: toxicity, cell-based; settings: human
Rattus norvegicus [31] = experiment: Toxicity in rat assessed as mortality at 300 mg/kg/day, po measured over 14 days; type: organism-based; settings: in vivo, 336 h
Cytochrome P450 2D6 = Cytochrome P450 2D6 (Homo sapiens, UniProt P10635); experiment: Inhibition of CYP2D6 (unknown origin); type: ADME
Sequence of Cytochrome P450 2D6 (P10635 whole entry): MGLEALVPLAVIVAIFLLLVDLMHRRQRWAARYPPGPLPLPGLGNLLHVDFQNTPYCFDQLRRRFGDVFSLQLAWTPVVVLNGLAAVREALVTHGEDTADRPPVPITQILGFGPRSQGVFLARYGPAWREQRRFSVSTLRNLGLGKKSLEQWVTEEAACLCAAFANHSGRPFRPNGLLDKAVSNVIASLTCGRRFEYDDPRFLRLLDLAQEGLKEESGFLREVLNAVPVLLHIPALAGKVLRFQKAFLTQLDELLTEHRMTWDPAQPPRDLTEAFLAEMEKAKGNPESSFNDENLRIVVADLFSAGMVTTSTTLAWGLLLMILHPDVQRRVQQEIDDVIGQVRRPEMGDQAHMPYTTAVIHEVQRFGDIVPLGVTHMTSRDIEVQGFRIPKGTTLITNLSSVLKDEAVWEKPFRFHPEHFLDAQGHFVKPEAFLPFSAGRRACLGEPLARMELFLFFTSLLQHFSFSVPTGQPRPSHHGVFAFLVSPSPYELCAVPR

[32] = Permeability in RRCK cells; type: ADME, cell-based, Canis lupus familiaris, MDCKII-LE; settings: dog, MDCK; read-out: permeability
[33] = Half life in rat at 0.76 mg/kg, iv and 2.3 mg/kg, po; type: ADME, organism-based; settings: in vivo
[34] = biological target: Sodium channel protein type 9 subunit alpha (Homo sapiens, UniProt Q15858); experiment: Inhibition of NaV1.7 (unknown origin) by electrophysiology assay
[35] = Unbound clearance in rat at 0.76 mg/kg, iv and 2.3 mg/kg, po; type: ADME, organism-based; settings: in vivo
[36] = Mutagenicity in […] by Ames test in absence of […] fraction; type: toxicity
[37] = Solubility of the compound at pH 6.5; type: physicochemical; settings: buffer
Canis familiaris [38] = experiment: Hepatotoxicity in female dog assessed as pathological changes at >= 100 mg/kg/day, po measured over 14 days; type: toxicity, organism-based, Canis lupus familiaris; settings: in vivo, 336 h
[39] = Volume of distribution at steady state in rat at 0.5 mg/kg, iv and 1 mg/kg, po; type: ADME, organism-based; settings: in vivo, read-out: Vdss
[40] = Average plasma concentration in rat at 10 mg/kg, po administered as single dose measured on day 14; type: ADME, organism-based; settings: in vivo
[41] = Intrinsic clearance in human liver microsomes; type: ADME; settings: read-out: CLH
[42] = Intrinsic clearance in human hepatocytes assessed per 10^6 cells; type: ADME, cell-based, Hepatocyte; settings: read-out: CLH
[43] = biological target: Solute carrier organic anion transporter family member 2B1 (Homo sapiens, UniProt O94956); experiment: Drug uptake assessed as human OATP2B1-mediated drug accumulation by cell-based assay relative to wild type protein; type: ADME
Sequence of Solute carrier organic anion transporter family member 2B1 (O94956 whole entry): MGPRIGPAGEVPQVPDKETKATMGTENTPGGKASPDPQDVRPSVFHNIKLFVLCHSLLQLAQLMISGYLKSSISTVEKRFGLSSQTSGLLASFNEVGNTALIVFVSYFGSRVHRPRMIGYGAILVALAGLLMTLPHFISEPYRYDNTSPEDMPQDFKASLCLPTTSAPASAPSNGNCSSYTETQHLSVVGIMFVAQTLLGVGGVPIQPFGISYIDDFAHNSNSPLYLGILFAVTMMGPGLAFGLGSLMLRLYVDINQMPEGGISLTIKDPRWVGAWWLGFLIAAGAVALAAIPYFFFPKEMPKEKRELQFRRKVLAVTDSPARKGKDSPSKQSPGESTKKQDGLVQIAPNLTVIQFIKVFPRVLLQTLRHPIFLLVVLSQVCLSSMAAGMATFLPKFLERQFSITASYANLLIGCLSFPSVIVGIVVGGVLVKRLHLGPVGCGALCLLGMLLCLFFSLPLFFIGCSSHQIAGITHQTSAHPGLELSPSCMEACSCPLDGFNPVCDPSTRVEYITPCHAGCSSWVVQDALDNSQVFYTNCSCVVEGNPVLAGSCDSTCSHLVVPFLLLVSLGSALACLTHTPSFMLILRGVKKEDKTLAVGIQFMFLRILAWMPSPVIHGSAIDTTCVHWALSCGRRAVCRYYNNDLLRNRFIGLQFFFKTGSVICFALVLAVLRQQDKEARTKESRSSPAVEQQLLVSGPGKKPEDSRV

[44] = biological target: Solute carrier organic anion transporter family member 1B1 (Homo sapiens, UniProt Q9Y6L6); experiment: Drug uptake assessed as human OATP1B1-mediated drug accumulation by cell-based assay relative to wild type protein; type: ADME
Sequence of Solute carrier organic anion transporter family member 1B1 (Q9Y6L6 whole entry): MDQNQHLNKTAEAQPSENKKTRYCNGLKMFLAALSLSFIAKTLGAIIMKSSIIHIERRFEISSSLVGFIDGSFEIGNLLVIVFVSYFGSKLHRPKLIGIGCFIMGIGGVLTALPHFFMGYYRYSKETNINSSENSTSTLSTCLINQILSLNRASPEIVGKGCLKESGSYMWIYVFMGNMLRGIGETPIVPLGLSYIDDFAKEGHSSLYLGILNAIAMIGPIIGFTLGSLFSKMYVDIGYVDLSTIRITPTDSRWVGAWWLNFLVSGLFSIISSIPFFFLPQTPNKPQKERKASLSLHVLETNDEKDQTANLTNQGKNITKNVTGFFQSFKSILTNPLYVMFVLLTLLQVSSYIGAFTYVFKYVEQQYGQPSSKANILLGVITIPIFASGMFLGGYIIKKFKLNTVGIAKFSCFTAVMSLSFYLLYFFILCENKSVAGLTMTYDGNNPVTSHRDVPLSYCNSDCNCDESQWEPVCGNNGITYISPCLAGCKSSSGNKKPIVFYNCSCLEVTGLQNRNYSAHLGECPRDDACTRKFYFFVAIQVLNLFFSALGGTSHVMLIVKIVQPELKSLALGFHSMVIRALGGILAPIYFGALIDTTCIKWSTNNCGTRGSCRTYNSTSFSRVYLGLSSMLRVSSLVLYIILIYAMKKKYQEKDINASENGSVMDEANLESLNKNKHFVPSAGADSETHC

Q: With `N#Cc1ccc(Oc2ccc(S(=O)(=O)Nc3ccc(F)cn3)cc2C#N)cc1Cl` as the compound, how does the CL renal [1] read?
A: The CL renal was 0.0001 mL/min/kg.

Q: What about the Drug metabolism [2] of the same compound?
A: The Drug metabolism was “Metabolite_Detected”.

Q: What about the clearance [3] of the same compound?
A: Its clearance is 0.48 mL/min/kg.

Q: And the “fold change (FC)” value [4]?
A: The value was 1.067.

Q: And the logD [5]?
A: The logD was 1.8.

Q: What about the Activity (Canis familiaris [6]) of the same compound?
A: The Activity was “Non-Toxic”.

Q: And the pIC50 [7]?
A: The pIC50 was 4.85.

Q: And the Drug metabolism [8]?
A: The Drug metabolism was “Metabolite_Notdetected”.

Q: What about the Activity (Rattus norvegicus [9]) of the same compound?
A: The Activity was “Toxic”.

Q: What about the pIC50 (Cytochrome P450 3A4) of the same compound?
A: The pIC50 was 4.76.

Q: And the CL free [10]?
A: Its CL free is 95 mL/min/kg.

Q: And the Drug metabolism [11]?
A: Its Drug metabolism is “Metabolite_Notdetected”.

Q: What about the pIC50 [12] of the same compound?
A: Its pIC50 is less than 4.52.

Q: What about the Drug metabolism [13] of the same compound?
A: The Drug metabolism was “Metabolite_Detected”.

Q: What about the Drug metabolism [14] of the same compound?
A: The Drug metabolism was “Metabolite_Detected”.

Q: What about the Activity (Rattus norvegicus [15]) of the same compound?
A: The Activity was “Toxic”.

Q: What about the Activity (Rattus norvegicus [16]) of the same compound?
A: The Activity was “Toxic”.

Q: And the fraction unbound [17]?
A: The fraction unbound was 0.0021.

Q: What about the pIC50 [18] of the same compound?
A: The pIC50 was 6.14.

Q: What about the bioavailability [19] of the same compound?
A: Its bioavailability is 100%.

Q: And the pIC50 [20]?
A: Its pIC50 is 7.92.

Q: What about the Activity (Rattus norvegicus [21]) of the same compound?
A: Its Activity is “Toxic”.

Q: What about the Activity (Canis familiaris [22]) of the same compound?
A: The Activity was “Toxic”.

Q: What about the pIC50 [23] of the same compound?
A: The pIC50 was 4.85.

Q: What about the Activity [24] of the same compound?
A: Its Activity is “Non-Toxic”.

Q: And the Vd [25]?
A: Its Vd is 0.25 L/kg.

Q: And the dose excreted [26]?
A: Its dose excreted is less than 0.5%.

Q: And the fCmax [27]?
A: The fCmax was 7.419 µM.

Q: What about the pKi [28] of the same compound?
A: The pKi was 5.32.

Q: What about the fCmax [29] of the same compound?
A: Its fCmax is 59 nM.

Q: What about the Activity [30] of the same compound?
A: Its Activity is 103 µM.

Q: And the Activity (Rattus norvegicus [31])?
A: The Activity was “Toxic”.

Q: What about the pIC50 (Cytochrome P450 2D6) of the same compound?
A: Its pIC50 is less than 4.52.

Q: What about the Papp [32] of the same compound?
A: The Papp was 16 ×10⁻⁶ cm/s.

Q: And the half-life [33]?
A: Its half-life is 7.1 h.

Q: And the pIC50 [34]?
A: The pIC50 was less than 4.52.

Q: What about the CL free [35] of the same compound?
A: Its CL free is 229 mL/min/kg.

Q: What about the Activity [36] of the same compound?
A: Its Activity is “Non-Toxic”.

Q: What about the solubility [37] of the same compound?
A: Its solubility is 7.7 µM (≈ 3.3 µg/mL).

Q: What about the Activity (Canis familiaris [38]) of the same compound?
A: The Activity was “Non-Toxic”.

Q: What about the Vd [39] of the same compound?
A: The Vd was 0.18 L/kg.

Q: And the Cave [40]?
A: The Cave was 41 nM.

Q: And the microsomal CLint [41]?
A: The microsomal CLint was less than 13 µL/min/mg.

Q: And the hepatocyte CLint [42]?
A: The hepatocyte CLint was 23 µL/min/1e6 cells.

Q: And the “fold change (FC)” value [43]?
A: The value was 1.232.

Q: What about the “fold change (FC)” value [44] of the same compound?
A: Its value is 1.003.
